Laboratory results taken from ChEMBL document CHEMBL1201862, “PubChem BioAssay data set” (2004).
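Method: 48-hour compound exposure of cells in 96-well plates, five concentrations, linear interpolation of endpoints. GI50 = concentration required for 50% inhibition of growth.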 The source made the active and inactive calls. Rule as the data show it: active = GI50 up to about 1.1 µM and inactive = higher.

What was measured:
Assay in all cases: NCI tumour cell line growth inhibition, 48 h
ACHN = test system: ACHN
OVCAR-8 = test system: OVCAR-8
OVCAR-3 = test system: OVCAR-3
SW-620 = test system: SW-620
Hs-578T = test system: Hs-578T
MDA-N = test system: MDA-N
OVCAR-4 = test system: OVCAR-4
COLO 205 = test system: COLO 205
SK-MEL-2 = test system: SK-MEL-2
RXF 393 = test system: RXF 393
K562 = test system: K562
MCF7 = test system: MCF7
OVCAR-5 = test system: OVCAR-5
SF-268 = test system: SF-268
HCC 2998 = test system: HCC 2998
NCI-H460 = test system: NCI-H460
M14 = test system: M14
CCRF-CEM = test system: CCRF-CEM
SNB-75 = test system: SNB-75
MDA-MB-435 = test system: MDA-MB-435

Measured: GI50

O=C1N(Cc2ccccc2)C2CSCC2N1Cc1ccccc1 (stereo not given)
inactive: ACHN 49.2 µM | OVCAR-8 33.3 µM | OVCAR-3 10.4 µM | SW-620 36.2 µM | Hs-578T 18.6 µM | MDA-N 30.2 µM | OVCAR-4 69.2 µM | COLO 205 16.8 µM | SK-MEL-2 16.7 µM | RXF 393 20.6 µM | K562 55.5 µM | MCF7 31.4 µM | OVCAR-5 15.9 µM | SF-268 31.1 µM | HCC 2998 26.5 µM | NCI-H460 18.3 µM | M14 10.5 µM | CCRF-CEM 51.2 µM | SNB-75 41.9 µM | MDA-MB-435 20.2 µM
